Measurements reported in patent US10913714B2, “Pyrrole sulfonyl derivative, preparation method and medical use thereof” (JIANGSU CAREPHAR PHARMACEUTICAL CO., LTD, priority 2015, dated 2021).
Marks after values point to notes of the source that are not given here.

Key:
H^+/K^+-ATPase = biological target: T1, H^+/K^+-ATPase (Oryctolagus cuniculus, UniProt P27112); assay: Inhibition of H+/K+-ATPase enzymatic activity (rabbit gastric mucosal microsomes, malachite green); type: biochemical; settings: pH 6.5, 37° C. 30 min, read-out: The median inhibitory concentration (IC50) of the compound to the activity of H^+/K^+-ATPase
T1 construct: collecting the middle layer (H^+/K^+-ATPase enriched gastric membranes) into a clean centrifugal tube; from tissue; host or cells: rabbit stomach (gastric mucosal microsomes, sucrose/Ficoll gradient centrifugation)
Description: Biological Evaluation on H^+/K^+-ATPase
The following screening assays in vitro are used to evaluate the inhibiting effect of the compound of the Invention on the enzymatic activity of H^+/K^+-ATPase. Experimental materials and instruments are as follows:
1) Rabbit gastric mucosal microsomes (enriched H^+/K^+-ATPase; extracted by the Applicant)
2) Buffer solution: 50 mmol/L HEPEs-Tris, pH=6.5, 5 mmol/L magnesium chloride, 10 μmol/L valinomycin;
3) Buffer solution: 50 mmol/L HEPEs-Tris, pH=6.5, 5 mmol/L magnesium chloride, 10 μmol/L valinomycin, 5 mmol/L potassium chloride;
4) ATP: diluting ATP to 5 mM with buffer solution 1;
5) Malachite green solution: dissolving 0.12% of malachite green in 2.5 mol/L of sulfuric acid; mixing 7.5% (V/V) of ammonium molybdate and 11% of Tween 20(V/V) in a proportion of 100:25:2;
6) The method for extracting rabbit gastric mucosal microsomes (enriched H^+/K^+-ATPase) is sucrose gradient centrifugation, i.e., washing the rabbit stomach with tap water and 3M NaCl solution respectively and removing the surface moisture with filter paper; adding the pre-cooled buffer solution (4 ml/g tissue) for homogenation in a tissue homogenizer for 2-5 min; removing the large tissue particles in a way of centrifugation (600 g, 10 mm) if any after homogenation; transferring the supernatant to a clean centrifugal tube for centrifugation for 30 min at 2000 g; then transferring the supernatant to a clean centrifugal tube for further centrifugation for 90 min at 100000 g; collecting the sediment; suspending the sediment in the homogenate and blowing it to be uniform; measuring the protein concentration with Bradford method; adjusting the concentration to 10 mg/ml; adding 7.5% Ficoll demixing fluid in an equal proportion for centrifugation for 60 min at 100000 g; collecting the middle layer (H^+/K^+-ATPase enriched gastric membranes) into a clean centrifugal tube; diluting it with 4-5 times of homogenate for further centrifugation for 90 min at 100000 g; collecting the sediment; suspending the sediment in the homogenate for homogenation with a glass homogenizer; measuring the protein concentration with Bradford method and adjusting the concentration to 22.5 mg/ml; freezing it under −80° C. for standby. Experimental Process:
Adding 5 μL of gastric mucosal microsomes (H^+/K^+-ATPase) in 45 µL of buffer solution 2; adding 5 μL of the compound solution; adding 5 μL 5 mM of ATP to start the reaction for pre-reaction at 37° C. for 30 min; adding 15 μL of malachite green solution to terminate the reaction; balancing at ambient temperature for 20 min; reading the value of absorbed light at 620 nm.
Meanwhile, conducting another reaction with the same volume without potassium chloride for background, which will be subtracted when calculating the enzymatic activity.
The value of Compound IC50 is calculated through the inhibition ratios at different concentrations.

hERG potassium channel = biological target: T2, hERG potassium channel (Homo sapiens, UniProt Q12809); assay: Whole cell patch clamp, inhibition of hERG tail current; type: cell-based
T2 construct: expressed in transfected cells
Protocol: Test Case 2: Studies on the Effect of Compounds EXP 1, TAK-438 and EXP 12 on hERG Potassium Channel Testing System 1) Cell culture: the hERG cell is cultured in a routine way, which is subcultured in a DMEM containing 10% of fetal calf serum and 250 μg/ml of G418. 2) Fluid preparation: the composition of the extracellular fluid used in the experiment of whole cell patch clamp comprises (mM): NaCl 145, MgCl21, KCl 4, Glucose 10, HEPES 10 and CaCl22; adjusting the pH value of NaOH to 7.4 and adjusting the value of osmotic pressure to 300 mOsm with sucrose. The composition of the intracellular fluid comprises (mM):KCl 140; MgCl 21; EGTA 5; HEPES 10 and Na2ATP 4; adjusting the pH value of KOH to 7.2 and adjusting the value of osmotic pressure to 290 mOsm with sucrose.
Main composition of the extracellular and intracellular fluid
Test Procedure 1) Electrophysiological recording: taking out one culture dish for each test; cleaning it with the extracellular fluid twice and placing it on the inverted microscope stage. The experiment of whole cell patch clamp is conducted at ambient temperature; the resistance at the microelectrode tip of the used borosilicate glass is 3-5 MQ. 2) Voltage stimulus plan and current record: clamping down the membrane potential to −80 mV under the whole-cell recording mode; giving +50 mV of depolarized voltage stimulus to the cell every 30 s and lasting for 2 s, then repolarizing it to −50 mV and lasting for 3 s, thus, the tail current of hERG can be extracted. Giving 50 ms, −50 mV repolarized voltage to the cell before depolarized voltage stimulus; the current recorded at such voltage is as the base line for calculating the tail current of hERG. Only the cells meet the recording standard can be used in the test of the compounds to be tested. The hERG tail current should be recorded stably at last for 3 min in the extracellular fluid before the compound is added. After perfusion of drugs, it can be regarded that the drug effect reaches a steady state if the change of the amplitude of hERG tail current is less than 5%. If the current fails to reach a steady state in 6 min, the test should also be terminated. 3) Testing standard: the membrane resistance in the experiment should be more than 1,000 MQ. The initial current should be more than 300 pA. The series resistance should be less than 12 MQ after the whole-cell recording mode is constructed. The leakage current is less than 10% of the ionic channel current (taking −80 pA as the peak value). Data Analysis
Using Clampex 10.2 to record the original data and saving the data in the format of *abf. Using pCLAMP 10.1 to conduct data collection and analysis. Selecting 4-5 sweeps when the current is in a steady state before the compound is added; calculating the average peak value to serve as the contrasted current amplitude. Selecting 4-5 sweeps when the current is in a steady state after the compound is added; calculating the average peak value to serve as the residual amplitude of the inhibited current. The inhibition ratio of the compound to be tested to hERG current is calculated as per the equation as: % inhibition ratio={1−(current residual amplitude)/(contrasted current amplitude)}*100
After the inhibition ratio (average value±standard deviation) of the compound to be tested to the hERG current of different concentrations is obtained through the above computing method, the data with logistic equation should be fitted to obtain the value of IC50.

[1] = tested on: gastric acid secretion induced by histamine; assay: Gastric acid secretion induced by histamine in pylorus-ligated rats; type: in vivo; settings: SD rat
Description: Test Case 3: Studies on the Effect of EXP 1, TAK-438 and EXP 14 on Gastric Acid Secretion Induced by Histamine Experimental Materials 1) Animals
SD rat, class SPF, male, 180-220 g; provided by Zhejiang Experimental Animal Center; production permit no.: SCXK (Z) 2014-0001.
Compound EXP 1, dissolved with a small amount of acetic acid (about 1.10N EXP 1), 0.9% sodium chloride solution to a clear liquid with needed concentration before use.
>Compound TAK-438, dissolved with 0.9% sodium chloride solution to a clear liquid with needed concentration before use.
Compound EXP 14, dissolved with a small amount of acetic acid (about 1.10N EXP 14), 0.9% sodium chloride solution to a clear liquid with needed concentration before use.
Fetching 60 SD rats of class SPF with a weight of 180-220 g; dividing the rats into 5 groups as per weights randomly, including Group EXP 1 (2 mg/kg), Group TAK-438 (2 mg/kg, as per free alkali), Group EXP 14 (2 mg/kg), Group negative control (normal saline of equal volume) and Group model control (normal saline of equal volume); 12 rats per group. Absolute diet for 24 h, water is allowed. After 24 h, administrating drugs to the tested compound groups A, B and C by gavage with a volume of 1 ml/100 g; each group is administered once; the negative control and model negative control groups are administrated by gavage with normal saline of equal volume. Narcotizing the rat with 300 mg/kg of chloral hydrate (1 ml/100 g) and fixing it onto the rat board; cutting to open the abdominal wall along the medioventral line from the mucronate cartilage with an incision of 2-3 cm; slightly pushing the left costal margin upward to expose the stomach in the incision. Ligaturing the pylorus thereunder (leave alone the adjacent blood vessels) and then suturing the abdominal incision. Giving histamine dihydrochloride (30 mg/10 m/kg) hypodermically to the rat 1 h after the tested compound or normal saline are administrated. Choking the rat to death with excessive CO2 3 h after the histamine is given; taking out the stomach and collecting the gastric contents for centrifugation at 3000 rpm/min; adjusting the PH value of the acid fluid to 7.0 with 0.1 mol/L of NaOH titration and then calculating the total acid content of the 3 h. Refer to Table 3 for results.

T1 sequence (P27112 whole entry): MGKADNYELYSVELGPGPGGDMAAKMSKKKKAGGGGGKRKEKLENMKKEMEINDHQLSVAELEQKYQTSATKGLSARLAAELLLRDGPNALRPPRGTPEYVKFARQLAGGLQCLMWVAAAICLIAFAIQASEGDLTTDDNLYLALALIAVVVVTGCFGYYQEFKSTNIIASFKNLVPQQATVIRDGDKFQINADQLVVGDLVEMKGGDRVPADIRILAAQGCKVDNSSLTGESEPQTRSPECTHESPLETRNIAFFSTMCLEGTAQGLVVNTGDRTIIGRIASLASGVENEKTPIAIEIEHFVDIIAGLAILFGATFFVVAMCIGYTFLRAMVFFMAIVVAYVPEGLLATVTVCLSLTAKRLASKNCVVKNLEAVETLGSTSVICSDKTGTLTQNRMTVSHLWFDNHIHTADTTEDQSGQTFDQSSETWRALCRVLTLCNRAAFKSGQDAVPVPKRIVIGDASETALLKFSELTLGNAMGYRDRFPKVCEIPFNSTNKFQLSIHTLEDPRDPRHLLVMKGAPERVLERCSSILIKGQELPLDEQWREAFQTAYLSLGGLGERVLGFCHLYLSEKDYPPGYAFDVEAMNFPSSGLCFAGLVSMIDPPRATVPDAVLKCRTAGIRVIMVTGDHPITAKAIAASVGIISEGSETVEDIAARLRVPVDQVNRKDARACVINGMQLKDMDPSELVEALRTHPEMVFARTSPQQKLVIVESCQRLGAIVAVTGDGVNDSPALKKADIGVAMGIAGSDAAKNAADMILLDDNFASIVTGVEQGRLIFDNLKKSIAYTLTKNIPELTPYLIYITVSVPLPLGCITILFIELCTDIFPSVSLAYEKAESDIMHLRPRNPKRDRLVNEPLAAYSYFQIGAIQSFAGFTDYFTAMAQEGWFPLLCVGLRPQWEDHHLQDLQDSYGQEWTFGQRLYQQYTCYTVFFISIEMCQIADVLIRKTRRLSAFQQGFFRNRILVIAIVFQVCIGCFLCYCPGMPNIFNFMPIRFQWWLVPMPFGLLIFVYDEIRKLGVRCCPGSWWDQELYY
T1 sequence (P18597 whole entry partner): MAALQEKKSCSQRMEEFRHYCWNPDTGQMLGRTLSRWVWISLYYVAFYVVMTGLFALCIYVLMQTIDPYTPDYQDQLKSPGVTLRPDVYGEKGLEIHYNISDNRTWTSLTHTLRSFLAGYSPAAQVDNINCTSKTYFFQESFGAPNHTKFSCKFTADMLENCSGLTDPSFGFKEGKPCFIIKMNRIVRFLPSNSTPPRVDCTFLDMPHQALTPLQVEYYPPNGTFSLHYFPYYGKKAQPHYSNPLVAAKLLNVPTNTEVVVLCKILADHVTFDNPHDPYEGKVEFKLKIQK
T2 sequence (Q12809 whole entry): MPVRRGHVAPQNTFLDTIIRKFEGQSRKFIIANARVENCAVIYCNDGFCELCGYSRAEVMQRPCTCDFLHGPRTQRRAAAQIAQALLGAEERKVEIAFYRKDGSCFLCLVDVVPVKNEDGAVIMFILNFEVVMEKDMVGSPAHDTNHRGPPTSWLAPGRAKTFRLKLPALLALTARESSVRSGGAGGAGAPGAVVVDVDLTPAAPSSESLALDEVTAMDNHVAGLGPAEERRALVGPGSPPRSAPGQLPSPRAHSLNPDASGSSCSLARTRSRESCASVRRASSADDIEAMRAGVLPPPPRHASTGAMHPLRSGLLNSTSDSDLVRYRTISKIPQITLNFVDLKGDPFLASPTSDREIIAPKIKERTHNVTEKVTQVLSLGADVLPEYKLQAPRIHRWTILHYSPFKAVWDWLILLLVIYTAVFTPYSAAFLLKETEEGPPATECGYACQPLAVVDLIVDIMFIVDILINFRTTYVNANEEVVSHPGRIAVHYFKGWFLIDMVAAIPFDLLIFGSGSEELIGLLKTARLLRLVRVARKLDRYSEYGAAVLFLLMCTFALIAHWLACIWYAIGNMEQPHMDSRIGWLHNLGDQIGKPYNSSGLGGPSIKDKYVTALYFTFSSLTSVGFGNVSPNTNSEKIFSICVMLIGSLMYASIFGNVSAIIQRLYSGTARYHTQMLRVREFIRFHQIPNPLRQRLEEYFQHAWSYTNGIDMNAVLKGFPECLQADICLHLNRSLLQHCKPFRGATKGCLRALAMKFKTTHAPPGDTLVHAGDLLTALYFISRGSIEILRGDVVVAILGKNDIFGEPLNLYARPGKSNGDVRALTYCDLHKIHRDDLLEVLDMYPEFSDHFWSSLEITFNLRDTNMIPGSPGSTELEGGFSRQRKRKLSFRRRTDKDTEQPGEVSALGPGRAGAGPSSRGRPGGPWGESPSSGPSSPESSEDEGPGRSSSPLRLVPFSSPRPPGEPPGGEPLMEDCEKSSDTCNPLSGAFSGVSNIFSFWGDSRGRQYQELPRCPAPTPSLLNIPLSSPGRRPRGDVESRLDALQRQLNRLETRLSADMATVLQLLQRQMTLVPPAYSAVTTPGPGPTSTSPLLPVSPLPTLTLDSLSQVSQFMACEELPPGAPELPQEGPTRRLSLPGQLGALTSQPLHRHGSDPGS

| SMILES | IC50 (H^+/K^+-ATPase) [µM] | other results |
| --- | --- | --- |
| CNCc1cc(-c2ccccc2F)n(S(=O)(=O)c2cccc(OC3CCN(C(C)=O)C3)c2)c1 (stereo not shown) [EXP 2, 1-(3-(3-((2-(2-fluorobenzene)-4-((methylamino)methyl)-1H-yl)sulfonyl)phenoxy)pyrrolidine-1-yl)ethyl-1-ketone] | 0.1 to 1 |  |
| CNCc1cc(-c2ccccc2F)n(S(=O)(=O)c2cccc(OCCOC)c2)c1 [EXP 3, 1-(5-(2-fluorobenzene)-1-((3-(2-methoxyethyoxyl)phenyl)sulfonyl)-1H-pyrrole-3-yl)-N-methyl methylamine] | 0.1 to 1 |  |
| CNCc1cc(-c2ccccc2F)n(S(=O)(=O)c2cccc(OCCCS(C)(=O)=O)c2)c1 [EXP 4, 1-(5-(2-fluorobenzene)-1-((3-(3-methylsulphonylpropoxy)phenyl)sulfonyl)-1H-pyrrole-3-yl)-N-methyl methylamine] | < 0.1 |  |
| CNCc1cc(-c2ccccc2F)n(S(=O)(=O)c2cccc(OCCN3CCOCC3)c2)c1 [EXP 5, 1-(5-(2-Fluorobenzene)-1-((3-(2-Morpholinyl Ethyoxyl)Phenyl)Sulfonyl)-1H-Pyrrole-3-Yl)-N-Methyl Methylamine] | 0.1 to 1 |  |
| CNCc1cc(-c2ccccc2F)n(S(=O)(=O)c2cccc(NCCN3CCOCC3)c2)c1 [EXP 6, 3-((2-(2-Fluorobenzene)-4-((Methylamino)Methylene)-1H-Pyrrole-1-Yl)Sulfonyl)-N-(2-Morpholinyl Ethyl) Henylamine] | 0.1 to 1 |  |
| CNCCCOc1cccc(S(=O)(=O)n2cc(CNC)cc2-c2ccccc2F)c1 [EXP 7, 3-(3-((2-(2-fluorobenzene)-4-((methylamino)methylene)-1H-pyrrole-1-yl)sulfonyl)phenoxy)-N-methyl-n-propylamine] | 0.1 to 1 |  |
| CNCc1cc(-c2ccccc2F)n(S(=O)(=O)c2cccc(OCC3CNCCO3)c2)c1 (stereo not shown) [EXP 8, 1-(5-(2-fluorobenzene)-1-((3-(morpholinyl-2-yl-methoxyl)phenyl)sulfonyl)-1H-pyrrole-3-yl)-N-methyl methylamine] | 0.1 to 1 |  |
| CNCc1cc(-c2ccccc2F)n(S(=O)(=O)c2cccc(OCC(C)(C)COC)c2)c1 [EXP 9, 1-(5-(2-fluorobenzene)-1-((3-(3-methoxy-2,2-dimethylpropoxy)phenyl)sulfonyl)-1H-pyrrole-3-yl)-N-methyl methylamine] | 0.1 to 1 |  |
| CNCc1cc(-c2ccccc2F)n(S(=O)(=O)c2cccc(OCCOc3ccccc3)c2)c1 [EXP 10, 1-(5-(2-Fluorobenzene)-1-((3-(2-Phenoxy Ethyoxyl)Phenyl)Sulfonyl)-1H-Pyrrole-3-Yl)-N-Methyl Methylamine] | < 0.1 |  |
| CNCc1cc(-c2ccccc2F)n(S(=O)(=O)c2cccc(OCCN3CCCCC3)c2)c1 [EXP 11] | 1 to 5 |  |
| CNCc1cc(-c2ccccc2F)n(S(=O)(=O)c2cccc(OC)c2)c1 [EXP 12] | < 0.1 | IC50 (hERG potassium channel; human, hERG cells (host cell line not named), pH 7.4, whole cell patch clamp, logistic fit): 3.95 µM; Inhibition ratio of max. test concentration (hERG current) (hERG potassium channel; max. test concentration 30 μM): 90.33 ± 2.16% |
| CNCc1cc(-c2ccccc2F)n(S(=O)(=O)c2cccc(OCC(=O)NC)c2)c1 [EXP 14, 2-(3-((2-(2-fluorophenyl)-4-((methylamine)methyl)-1H-pyrrole-1-yl)sulfonyl)phenoxy)-N-methylacetamide] | 0.1 to 1 | Total acid content ([1]; 2 mg/kg by gavage 1 h before histamine, total acid of 3 h): 0.65 ± 0.20** 10^−4 mol; Acid inhibiting rate % ([1]; 2 mg/kg by gavage, compared with model control): 40.4% |
